Measurements from patent publication US11969402B2, “Compositions and methods for skin rejuvenation” (THE JOHNS HOPKINS UNIVERSITY, priority 2019, dated 2024).

Assays:
[1] = system: human scalp keratinocytes; experiment: Retinoid levels (RA by LC-MS/MS, ROL and RE by HPLC-UV) in keratinocytes; type: cell-based; details: human scalp keratinocytes, rhIL6 0, 10, 50, 100 ng per ml, 2 days
Excerpt: Small interference RNA (siRNA) transfection. Human ALDH1A2 (Santa Cruz Biotechnology, sc41443), ALDH1A3 (Santa Cruz Biotechnology, sc43611), TLR3 (Dharmacon, M-007745-00), TRIF (Santa Cruz Biotechnology, sc106845), IRF3 (Santa Cruz Biotechnology, sc35710), NF-κB (Santa Cruz Biotechnology, sc29410) and non-targeting control (scramble) siRNAs (Santa Cruz Biotechnology, sc37007 & Dharmacon, D-001210) were commercially provided. Human scalp keratinocytes (3×10^5 cells per well) in 12-well plates were transfected with 20 nM of siRNAs using Lipofectamine® RNAiMAX (Thermo Fisher Scientific, #13778150) following the manufacturer's directions. Poly (I:C) (0.1 μg per ml) was applied to transfected cells and incubated for 48 hrs. At the end of transfection period, cells were harvested to isolate protein to perform qRT-PCR, western blot, and RA mass spectrometry.
IL6 treatment. Recombinant human interleukin 6 (rhIL6) (R&D system; 206-IL-010) was treated into human scalp keratinocytes with dose-dependent manners (0, 10, 50, and 100 ng per ml) for 2 days. Cells were harvested and lysates were used for RA measurement.
Determination of Retinoid Levels. For in vitro samples, human scalp keratinocytes were incubated with 0.5 μg per ml of Poly (I:C) for 48 hrs or siRNAs-transfected cells were incubated with 0.1 μg per ml of Poly (I:C) for 48 hrs. For in vivo samples, skin was analyzed from wild-type and Tlr3^−/− unwounded and wounded skin where wound regions (center and edge area) were cut by scalpel. Human skin was analyzed for retinoids with and without CO2 laser treatment as described. All samples were frozen at collection and stored at −80° C. until extraction. For in vitro experiments, media and cell pellets were analyzed separately. For in vivo experiments, tissues were homogenized in saline. Extraction of retinoids was performed under yellow lights using a two-step liquid-liquid extraction that has been described in detail previously using 4,4-dimethyl-RA as an internal standard for RA and retinyl acetate as an internal standard for retinol and total retinyl ester^43-46. For the extraction of retinoids, 1 to 3 ml of 0.025 M KOH in ethanol was added to tissue homogenates (in vivo) or cell culture (in vitro) samples. Then 10 ml hexane (for in vivo tissue sample) or 5 ml hexane (for in vitro cell culture sample) was added to the aqueous ethanol phase. The samples were vortexed and centrifuged for 1 to 3 min at 1000 rpm in a Dynac centrifuge (Becton Dickinson) to facilitate phase separation and pellet precipitated protein. The hexane (top) phase containing nonpolar retinoids (ROL and RE) was removed. 4 M HCl (60-180 μl) was added to the remaining aqueous ethanol phase, samples were vortexed, and then polar retinoids (RA) were removed by extraction with a second 5-10 ml aliquot of hexane as described above. […]
Levels of RA were determined by liquid chromatography-multistage tandem mass spectrometry (LC-MRM^3) which is an LC-MS/MS method utilizing two distinct fragmentation events for enhanced selectivity^43. RA was measured using a Shimadzu Prominence UFLC XR liquid chromatography system (Shimadzu, Columbia, MD) coupled to an AB Sciex 5500 or 6500+ QTRAP hybrid triple quadrupole mass spectrometer (AB Sciex, Framingham, MA) using atmospheric pressure chemical ionization (APCI) operated in positive ion mode as previously described^43. […]

[2] = system: Wound Induced Hair Neogenesis (WIHN); experiment: Wound Induced Hair Neogenesis (WIHN), regenerated hair follicles counted by CSLM; type: in vivo, mouse; details: WT mice, topical 0.1 μg per mouse on WD1, with or without Poly (I:C)
Protocol: (§1) Wound Induced Hair Neogenesis (WIHN). All experiments were followed with the present inventors' WIHN protocol^1,9. Briefly, hair was shaved and a 1.2 cm^2 full-thickness skin on the backs of 21-day old (telogen) male and female mice was removed by sterile scissors. A single treatment of RA (30 μl) (0.1 μg per mouse) (Millipore Sigma, R2625) and BMS493 (30 μl) (0.1 μg per mouse) (Cayman Chemical, #17418) was applied topically onto open wound on WD1 of Tlr3^−/− and WT mice, respectively. Poly (I:C) (50 μl) (5 μg per mouse) (Invivogen, tlrl-pic) was injected under the healed scab on WD3 of WT mice as described before^9,34. On WD20-24, numbers of regenerated hair follicles were visualized and quantified in the re-epithelialized skin by non-invasive confocal scanning laser microscopy (CSLM) (Caliber I.D., VIVASCOPE 1500) as published^1,9. As a vehicle (Control), ethanol (EtOH), dimethylsulfoxide (DMSO), or PBS was treated for RA, BMS493, and Poly (I:C), respectively.

[3] = system: keratinocytes of Tlr3−/− mice; experiment: Western blot of stem cell markers in keratinocytes of Tlr3-/- mice; type: cell-based, mouse; details: keratinocytes of Tlr3−/− mice, BMS493 1 μM pre-treated
Protocol: Adult keratinocytes isolation and cultures. For human keratinocytes, 3-mm skin biopsies were taken from areas of the occipital scalp through above IRB protocols using enzyme digestion method as described in the literature^30,31. For mouse keratinocytes, tails of adult mice were used and followed by the same protocol of human keratinocytes. Briefly, the skin fragments were incubated in 0.4% dispase II solution overnight at 4° C., allowing separation of epidermis from dermis. Then epidermis was incubated with 0.25% trypsin-EDTA (Lonza, Walkersville, MD) to isolate keratinocytes for 5 min at 37° C. Adult keratinocytes were maintained in KGM including defined growth factors (KGM-GOLD Bullet kit, #192060) (Lonza) and supplemented with 10 μM of ROCK inhibitor (Y-27632) (Cayman Chemical, #10005583) until use^32. For all in vitro experiments, primary keratinocytes were passaged at least once to eliminate contaminating other cells isolated from epidermis and used at passage 2-4 for human and passage 1-2 for mouse keratinocytes.
(§2) BMS493 treatment. BMS493 pan-RARs antagonist (1 μM) was pre-treated into keratinocytes for an hour and cells were incubated with RA (0.1 μM and 0.5 μM for human and mouse keratinocytes, respectively) or Poly (I:C) (0.1 μg per ml for both human and mouse keratinocytes) for 48 hrs. At the end of the experiment, cells were harvested for RNA and protein extraction to do further analysis including qRT-PCR and western blot.
Western blot analysis. Human and mouse keratinocytes were disrupted in M-PER lysis buffer (Thermo Fisher Scientific, #78501) containing protease inhibitors (Thermo Fisher Scientific, #87786) using ultrasonic homogenizer (20% power with 5 times every 2 seconds) to extract proteins. Then, protein concentrations were determined by BCA method (Thermo Fisher Scientific, #23225). Western blot procedures were followed by the protocol of NuPAGE system (Thermo Fisher Scientific). […] The signal intensity of protein was quantified using Image Lab software (Bio-Rad). […]

[4] = system: human scalp keratinocytes; experiment: Western blot / immunostaining of ALDH1A3, KRT15, KRT19 in human keratinocytes; type: cell-based; details: human keratinocytes
Protocol: as §2
Western blot analysis. Human and mouse keratinocytes were disrupted in M-PER lysis buffer (Thermo Fisher Scientific, #78501) containing protease inhibitors (Thermo Fisher Scientific, #87786) using ultrasonic homogenizer (20% power with 5 times every 2 seconds) to extract proteins. Then, protein concentrations were determined by BCA method (Thermo Fisher Scientific, #23225). Western blot procedures were followed by the protocol of NuPAGE system (Thermo Fisher Scientific). Briefly, 20 μg of protein samples were loaded for electrophoresis and transferred to polyvinylidene di-fluoride (PVDF) membrane (Bio-Rad, Hercules, CA). After blocking for at least an hour in 5% non-fat dry milk, the membrane was incubated with primary antibodies with appropriate dilutions (Table 2) at 4° C. overnight and followed by incubation with secondary antibodies for 1 hour at room temperature. Protein amounts were normalized to rabbit polyclonal anti-human β-actin antibody (1:1,000 dilution) (Cell Signaling Technology). Finally, proteins were visualized using SuperSignal West Pico PLUS chemiluminescent substrate kit (Thermo Fisher Scientific, #34577) and saved as image files using ChemiDoc XRS^+ (Bio-Rad). The signal intensity of protein was quantified using Image Lab software (Bio-Rad). Original images of representative blots were provided in the Source data file.
Immunofluorescence. For tissues, frozen-sections of mouse skin samples were stained with primary antibodies with appropriate dilution at 4° C. overnight, followed by incubation with goat anti-rabbit IgG labeled with Alexa Flour® 488 (Life Technologies) and 594 (Life Technologies) for 1 hour at room temperature. For cells, keratinocytes (3×10^5 cells) plated on cover-slip were fixed with 4% Paraformaldehyde (PFA) for 10 min, permeabilized in PBS including 0.5% Triton X-100 for 15 min at room temperature. After washing with PBS 3 times, cells were stained with primary antibodies overnight at 4° C., followed by incubation with goat anti-rabbit or mouse IgG labeled with Alexa Flour® 488 for 1 hour at room temperature. Cell nuclei were visualized by mounting medium including DAPI (Vector Laboratories, Burlingame, CA, H-1200). Fluorescence images were observed by fluorescence microscopy (Leica microsystems), taken pictures with ×100 (low magnification) and ×200 (high magnification), and saved as image files.

wound beds = experiment: Immunostaining of healing wounds; type: in vivo, mouse; details: WT mice
Protocol: as §1
Immunofluorescence. […] Fluorescence images were observed by fluorescence microscopy (Leica microsystems), taken pictures with ×100 (low magnification) and ×200 (high magnification), and saved as image files.

## IL-6: Recombinant human interleukin 6 (R&D system; 206-IL-010)
[1]
  RA accumulation: sufficient to substantially stimulate RA accumulation

## CC1(C)CC=C(C#Cc2ccccc2)c2cc(/C=C/c3ccc(C(=O)O)cc3)ccc21 [BMS493]
[2]
  WIHN: almost completely ablated
[3]
  RA-induced Krt15 and Krt19 expression: substantially inhibits expression
  RA-induced active β-catenin (ABC) expression: inhibits induction
[4]; BMS493 1 μM pre-treated
  RA and Poly (I:C)-induced KRT15 and KRT19 expression: substantially inhibited
Wound beds
  Wnt7b and Krt15 protein expression in wound beds prior to regeneration: decreased

## CCN(CC)c1ccc(C=O)cc1 [DEAB, N,N-diethylaminobenzaldehyde]
[4]; broad ALDH chemical inhibition
  Poly (I:C) induction of ALDH1A3, KRT15 and KRT19 protein: disrupted
